According to PMC12348882, “Rational Design, Synthesis and In Vitro Activity of Diastereomeric Cis-/Trans-3-Substituted-3,4-Dihydroisocoumarin-4-Carboxylic Acids as Potential Carnitine Acetyltransferase Inhibitors” (Molecules, 2025):
Entries after “also recorded” stand apart in the source; their conditions may differ.

How the values were obtained:
[1] = target: T1, carnitine acetyltransferase (CAT) (Columba livia, UniProt P52826); assay: Initial screening of CAT inhibition, spectrophotometric kinetic method with Ellman's reagent; format: biochemical; conditions: read in first minute of reaction; for inhibition at 100 µM: read-out: CAT inhibition (%), inhibitor 100 μM; for inhibition at 250 µM: read-out: CAT inhibition (%), inhibitor 250 μM; for inhibition at 1000 µM: read-out: CAT inhibition (%), inhibitor 1000 μM
T1 construct: an enzyme isolated from pigeon breast muscle (Sigma Aldrich) was used in the form of an ammonium sulfate suspension; tissue Sigma-Aldrich; host or cells: pigeon breast muscle
T1 sequence (P52826 31-627): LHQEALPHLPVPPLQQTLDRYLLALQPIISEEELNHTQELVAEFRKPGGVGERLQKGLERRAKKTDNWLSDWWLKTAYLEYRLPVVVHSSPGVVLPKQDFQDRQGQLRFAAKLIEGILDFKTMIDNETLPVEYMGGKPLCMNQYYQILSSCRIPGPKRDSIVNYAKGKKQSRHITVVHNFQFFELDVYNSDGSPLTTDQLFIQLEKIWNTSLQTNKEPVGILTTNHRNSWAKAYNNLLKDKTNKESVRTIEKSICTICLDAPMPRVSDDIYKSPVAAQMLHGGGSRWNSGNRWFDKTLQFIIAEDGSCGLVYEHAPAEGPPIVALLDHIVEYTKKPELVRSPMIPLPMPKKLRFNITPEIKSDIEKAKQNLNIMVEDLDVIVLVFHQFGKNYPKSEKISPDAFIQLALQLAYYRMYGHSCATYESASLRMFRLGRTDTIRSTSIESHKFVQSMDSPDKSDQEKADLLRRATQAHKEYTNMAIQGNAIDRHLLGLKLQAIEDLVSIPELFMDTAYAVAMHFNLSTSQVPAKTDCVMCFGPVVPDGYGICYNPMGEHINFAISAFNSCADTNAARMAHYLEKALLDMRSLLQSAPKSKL
Method: To assess the inhibitory potential of the synthesized compounds against CAT, we conducted an initial screening at three concentrations: 100 μM, 250 μM and 1000 μM. Readings were taken within the first minute after the reaction started, and inhibition was measured using a kinetic method, as described in the Experimental section. The results are summarized and presented as a percentage of inhibition in Figure 2 and Figure 3 for the 3-alkyl-3,4-dihydroisocoumarin-4-carboxylic acids and the 3-alkyl/3-aryl-6,7-dimethoxy-3,4-dihydroisocoumarin-4-carboxylic acids, respectively.
To determine the effect of the synthesized compounds on CAT activity, a modified procedure for spectrophotometric determination of L-carnitine using Ellman’s reagent was used. In all analyses, an enzyme isolated from pigeon breast muscle (Sigma Aldrich) was used in the form of an ammonium sulfate suspension with an activity of 71 U/mg protein. One unit of enzyme catalyzes the conversion of 1 μmol of L-carnitine and acetyl-CoA into acetylcarnitine and free CoA in 1 min. Phosphate buffer (0.5 M, pH = 7.6) is used to dilute the enzyme to obtain a stock solution with a concentration of 24 U/mL.
Ellman’s reagent was prepared immediately before each measurement by dissolving 25 mg DTNB in 5 mL 1 mM solution of Na2EDTA in phosphate buffer (0.5 M, pH = 7.6). Stock solutions of acetyl-CoA and L-carnitine were prepared in deionized water with concentrations of 348.0 μM and 303.4, respectively. An aqueous solution of tris (hydroxymethyl) aminomethane (TRIS) with pH = 7.6 and 1 M concentration was used as a buffer solution. Test compounds were dissolved and diluted in phosphate buffer (0.5 M, pH = 7.6) to the desired stock concentration. The working volume of the reaction is 300 μL and contains 50 μL of each of the six components (DTNB, TRIS, acetyl-CoA, CAT, L-carnitine and inhibitor) solutions with concentrations as described below. In the control samples, the inhibitor solution is replaced with phosphate buffer (0.5 M, pH = 7.6). The incubation time for all components without L-carnitine is 5 min at 37 °C. The reaction was started by adding L-carnitine, and its progress was monitored by reading the change in absorbance at 405 nm in kinetic mode. The concentrations of the components in the final volume were, c (DTNB) = 114 μM, c (TRIS) = 100 mM, c (acetyl-CoA) = 58 μM, c (CAT) = 4 U/mL and c (L-carnitine) = 50.56 μM. The time for reading the results was the first minute after starting the reaction.

[2] = target: T1, carnitine acetyltransferase (CAT); assay: Kinetic studies of CAT inhibition mechanism (Michaelis-Menten / Lineweaver-Burk, SigmaPlot regression); format: biochemical, pigeon; conditions: for Ki: mixed-type inhibition model, L-carnitine varied; for Type / mechanism of inhibition: model chosen by R^2, AIC and Sy,x
Source text: These experiments allowed us to identify the inhibition mechanism and calculate Km, Vmax and Ki. We used SigmaPlot version 12.5 (Systat Software Inc., San Jose, CA, USA), which includes modules for regression analysis and various inhibition models. This software also lets us choose the mechanism of inhibition with the highest correlation factors (coefficient of determination (R^2) and Akaike information coefficient (AIC)) and the lowest Sy,x value. The numerical results are summarized in Table 1, while the corresponding Lineweaver–Burk and Michaelis–Menten kinetic plots are available in the Supplementary Materials.
(Michaelis-Menten) and 1/v0 vs. […] (Lainweaver-Burke) relationships. For this purpose, five solutions with different concentrations of the inhibitor and five solutions with different concentrations of L-carnitine were prepared. […] The time for reading the results is every six seconds for three minutes after the start of the reaction, which corresponds to the end of the linear interval. The initial velocity v0 was determined using the method proposed by Baici, by calculating the cut-off of the v vs. t (time) dependence for the linear interval of each of the reactions. Graphical dependencies are provided in the Supplementary Materials (Figures S1–S3).
Figure S2. Graphs representing the dependence of the initial velocity (v 0) on the concentration of the substrate [S], according to the model of Michaelis -Menten – left, and Lineweaver-Burk – right, for reversible a) mixed, b) non-competitive, c) uncompetitive and d) competitive inhibition. The concentration of the inhibitor - compound cis-8 are 0 μM, 25.6 μM, 51.2 μM and 68.3 μM, concentration of L-carnitine are 94 μM, 180 μM, 370 μM, 750 μM and 1500 μM.
Figure S3. Graphs representing the dependence of the initial velocity (v 0) on the concentration of […]
for reversible a) mixed, b) uncompetitive, c) non-competitive and d) competitive inhibition. The concentration of the inhibitor - compound trans-8 are 0 μM, 26.0 μM, 52.0 and 69.4 μM,

[3] = target: carnitine acetyltransferase (CAT); set-up: method as in PMID 39942839; conditions: positive control; ref [21]; cited from earlier work
[4] = fit to competitive inhibition model
[5] = fit to non-competitive inhibition model
[6] = fit to uncompetitive inhibition model
[7] = non-competitive inhibition model

COc1cc2c(cc1OC)C(C(=O)O)C(c1cccc(OC)c1OC)OC2=O (racemic) [cis-10, Cis- and Trans-(±)-3,4-Dihydro-3-(2,3-Dimethoxyphenyl)-6,7-Dimethoxy-1-Oxo-1H-Isochromene-4-Carboxylic Acids]
inhibition at 100 µM [1]: 1%
inhibition at 250 µM [1]: 2%
inhibition at 1000 µM [1]: 12%

CCCC1OC(=O)c2ccccc2C1C(=O)O (mixture of isomers) [M2-1, Cis- and Trans-(±)-3-Propyl-3,4-Dihydro-1-Oxo-1H-Isochromene-4-Carboxylic Acids]
CAT inhibition (%) ([1]; inhibitor 100 μM): 1%
CAT inhibition (%) ([1]; inhibitor 250 μM): 3%
CAT inhibition (%) ([1]; inhibitor 1000 μM): 7%

CCCCCCCCCCC1OC(=O)c2cc(OC)c(OC)cc2C1C(=O)O (racemic) [cis-8, Cis- and Trans-(±)-3-Decyl-3,4-Dihydro-6,7-Dimethoxy-1-Oxo-1H-Isochromene-4-Carboxylic Acids]
inhibition at 100 µM [1]: 44%
inhibition at 250 µM [1]: 71%
inhibition at 1000 µM [1]: 85%
AIC [2, 4]: −1519.782
Sy,x [2, 4]: 5.211 × 10^−9
AIC ([2]; fit to mixed inhibition model): −1562.764
Sy,x ([2]; fit to mixed inhibition model): 2.987 × 10^−9
AIC [2, 5]: −1565.380
Sy,x [2, 5]: 2.947 × 10^−9
AIC [2, 6]: −1550.555
Sy,x [2, 6]: 3.547 × 10^−9
α ([2]; mixed inhibition model): 0.97
Ki [2]: 130 µM
Type / mechanism of inhibition [2]: mixed-type inhibitors; also recorded: allosteric inhibitor
Type / mechanism of inhibition ([2]; listed as cis-3-decyl-6,7-dimethoxy-3,4-dihydroisocoumarin-4-carboxylic acid): mixed inhibition
α [2, 7]: 1

CCCCCCCC1OC(=O)c2ccccc2C1C(=O)O (racemic) [trans-2, Cis- and Trans-(±)-3-Heptyl-3,4-Dihydro-1-Oxo-1H-Isochromene-4-Carboxylic Acids]
CAT inhibition (%) ([1]; inhibitor 100 μM, 100 µM): 4%
CAT inhibition (%) ([1]; inhibitor 250 μM, 250 µM): 6%
CAT inhibition (%) ([1]; inhibitor 1000 μM, 1000 µM): 25%

CCCCCCCC1OC(=O)c2cc(OC)c(OC)cc2C1C(=O)O (racemic) [cis-6, Cis- and Trans-(±)-3-Heptyl-3,4-Dihydro-6,7-Dimethoxy-1-Oxo-1H-Isochromene-4-Carboxylic Acids]
inhibition at 1000 µM [1]: 27%

C[N+](C)(C)NCCC(=O)[O-] [Meldonium]
IC50 [3]: 11400 µM

CCCCCCCCCC1OC(=O)c2ccccc2C1C(=O)O (racemic) [cis-3, Cis- and Trans-(±)-3,4-Dihydro-3-Nonyl-1-Oxo-1H-Isochromene-4-Carboxylic Acids]
inhibition at 100 µM [1]: 9%
inhibition at 250 µM [1]: 28%
inhibition at 1000 µM [1]: 97%

CCCCCCCC1OC(=O)c2ccccc2C1C(=O)O (racemic) [cis-2, Cis- and Trans-(±)-3-Heptyl-3,4-Dihydro-1-Oxo-1H-Isochromene-4-Carboxylic Acids]
inhibition at 100 µM [1]: 3%
inhibition at 250 µM [1]: 10%
inhibition at 1000 µM [1]: 16%

CCCCCCCCCC1OC(=O)c2ccccc2C1C(=O)O (racemic) [trans-3, Cis- and Trans-(±)-3,4-Dihydro-3-Nonyl-1-Oxo-1H-Isochromene-4-Carboxylic Acids]
CAT inhibition (%) ([1]; inhibitor 100 μM, 100 µM): 17%
CAT inhibition (%) ([1]; inhibitor 250 μM, 250 µM): 40%
CAT inhibition (%) ([1]; inhibitor 1000 μM, 1000 µM): 91%

CCCCCCCCCC1OC(=O)c2cc(OC)c(OC)cc2C1C(=O)O (racemic) [cis-7, Cis- and Trans-(±)-3,4-Dihydro-6,7-Dimethoxy-3-Nonyl-1-Oxo-1H-Isochromene-4-Carboxylic Acids]
inhibition at 100 µM [1]: 8%
inhibition at 250 µM [1]: 43%
inhibition at 1000 µM [1]: 85%

CCCCCCCCCCC1OC(=O)c2ccccc2C1C(=O)O (racemic) [cis-4, Cis- and Trans-(±)-3-Decyl-3,4-Dihydro-1-Oxo-1H-Isochromene-4-Carboxylic Acids]
CAT inhibition (%) ([1]; inhibitor 100 μM, 100 µM): 31%
inhibition at 250 µM [1]: 96%
inhibition at 1000 µM [1]: 97%

COc1cc2c(cc1OC)C(C(=O)O)C(c1ccccc1)OC2=O (racemic) [trans-9, Cis- and Trans-(±)-3,4-Dihydro-6,7-Dimethoxy-1-Oxo-3-Phenyl-1H-Isochromene-4-Carboxylic Acids]
inhibition at 100 µM [1]: 1%

CCCCCCCCCCC1OC(=O)c2cc(OC)c(OC)cc2C1C(=O)O (racemic) [trans-8, Cis- and Trans-(±)-3-Decyl-3,4-Dihydro-6,7-Dimethoxy-1-Oxo-1H-Isochromene-4-Carboxylic Acids]
AIC [2, 4]: −1490.723
Sy,x [2, 4]: 7.493 × 10^−9
AIC ([2]; fit to mixed inhibition model): −1548.364
Sy,x ([2]; fit to mixed inhibition model): 3.576 × 10^−9
AIC [2, 5]: −1542.332
Sy,x [2, 5]: 3.931 × 10^−9
AIC [2, 6]: −1548.795
Sy,x [2, 6]: 3.626 × 10^−9
α ([2]; mixed inhibition model): 0.21
Ki [2]: 377 µM
Type / mechanism of inhibition [2]: mixed-type inhibitors
Type / mechanism of inhibition ([2]; listed as trans-3-decyl-6,7-dimethoxy-3,4-dihydroisocoumarin-4-carboxylic acid): mixed inhibition
α [2, 7]: 1

CCCCCCCCCCC1OC(=O)c2ccccc2C1C(=O)O (racemic) [trans-4, Cis- and Trans-(±)-3-Decyl-3,4-Dihydro-1-Oxo-1H-Isochromene-4-Carboxylic Acids]
CAT inhibition (%) ([1]; inhibitor 100 μM, 100 µM): 54%
CAT inhibition (%) ([1]; inhibitor 250 μM, 250 µM): 79%
CAT inhibition (%) ([1]; inhibitor 1000 μM): 97%

COc1ccc(OC)c(C2OC(=O)c3cc(OC)c(OC)cc3C2C(=O)O)c1 (stereo not drawn) [cis-11, Cis- and Trans-(±)-3,4-Dihydro-3-(2,5-Dimethoxyphenyl)-6,7-Dimethoxy-1-Oxo-1H-Isochromene-4-Carboxylic Acids]
inhibition at 100 µM [1]: 1%
inhibition at 250 µM [1]: 6%
inhibition at 1000 µM [1]: 22%
